Results reported in publication PMC12516390 (ACS Medicinal Chemistry Letters, 2025).
In brackets after ≈: the same amount, converted by molar mass. Where two headings read alike, the source gives them in different places.

Tests used:
recombinant M^Pro = recombinant M^Pro (Severe acute respiratory syndrome coronavirus 2, UniProt P0DTD1); test: SARS-CoV-2 Mpro screening and IC50 determination (QS1 fluorogenic substrate, Drag assay); assay type: biochemical; details: for inhibition at 10 µM: read-out: M^Pro (%inh)@10μM
PL^Pro = PL^Pro (Severe acute respiratory syndrome coronavirus 2, UniProt P0DTD1); test: SARS-CoV-2 PLpro screening (Ac-LRGG-ACC substrate); assay type: biochemical; details: read-out: PL^Pro (%inh)@10μM
in vitro [1] = details: African monkey
[2] = target: Human Recombinant Cathepsin S (Homo sapiens, UniProt P25774); test: Cathepsin selectivity screening, Cat S (Z-Val-Val-Arg-AMC); assay type: biochemical; details: Z-Val-Val-Arg-AMC substrate
[3] = target: T1, Human Recombinant Cathepsin K (Homo sapiens, UniProt P43235); test: Cathepsin selectivity screening, Cat K (Z-Phe-Arg-AMC); assay type: biochemical; details: Z-Phe-Arg-AMC substrate
T1 sequence (P43235 115-329): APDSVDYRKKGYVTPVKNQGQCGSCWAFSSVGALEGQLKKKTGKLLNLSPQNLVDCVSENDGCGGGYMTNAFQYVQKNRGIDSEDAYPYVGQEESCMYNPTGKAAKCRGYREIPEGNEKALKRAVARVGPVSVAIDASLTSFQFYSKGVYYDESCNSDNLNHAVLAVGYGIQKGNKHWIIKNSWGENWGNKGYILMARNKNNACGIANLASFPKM

[4] = target: Human Recombinant Cathepsin B (Homo sapiens, UniProt P07858); test: Cathepsin selectivity screening, Cat B (Z-Phe-Arg-AMC); assay type: biochemical; details: for IC50: Z-Phe-Arg-AMC substrate
[5] = target: Human Recombinant Cathepsin L (Homo sapiens, UniProt P07711); test: Cathepsin selectivity screening, Cat L (Z-Phe-Arg-AMC); assay type: biochemical; details: Z-Phe-Arg-AMC substrate
physchem [6] = details: pH 7.4, aqueous buffer, kinetic from dmso stock
physchem [7] = details: pH 7.4
in vitro [8] = details: mouse, microsomes, pH 7.4
in vitro [9] = details: human, microsomes, pH 7.4
[10] = M^Pro IC50 (μM), recombinant M^Pro, 20 μM QS1 (Ac-Abu-Tle-Leu-Gln-ACC) substrate, Table 1
[11] = Table 5, read-out: IC50 (μM) CatS
[12] = Table 5, read-out: IC50 (μM) CatK
[13] = Table 5, read-out: IC50 (μM) CatB
[14] = Table 5, read-out: IC50 (μM) CatL
[15] = M^Pro IC50 (μM), recombinant M^Pro, 20 μM QS1 substrate, Table 3
[16] = M^Pro IC50 (μM), recombinant M^Pro, Table 6
[17] = IC50 (μM) M^Pro, recombinant M^Pro, 20 μM QS1 substrate, Table 5

Human Recombinant Cathepsin L, sequence (P07711 114-333): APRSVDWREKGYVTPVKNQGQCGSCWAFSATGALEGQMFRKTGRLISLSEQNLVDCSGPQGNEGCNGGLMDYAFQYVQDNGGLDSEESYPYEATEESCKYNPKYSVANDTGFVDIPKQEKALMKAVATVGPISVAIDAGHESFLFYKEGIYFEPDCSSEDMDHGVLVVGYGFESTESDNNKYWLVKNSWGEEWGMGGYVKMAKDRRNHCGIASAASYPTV
Human Recombinant Cathepsin S, sequence (P25774 115-331): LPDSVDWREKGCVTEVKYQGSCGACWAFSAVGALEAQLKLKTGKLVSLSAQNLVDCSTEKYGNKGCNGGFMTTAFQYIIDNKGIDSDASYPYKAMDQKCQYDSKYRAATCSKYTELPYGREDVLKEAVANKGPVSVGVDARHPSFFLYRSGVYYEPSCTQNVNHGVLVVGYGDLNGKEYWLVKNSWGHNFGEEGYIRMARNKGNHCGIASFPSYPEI

SMILES | inhibition at 10 µM (recombinant M^Pro) | inhibition at 10 µM (PL^Pro) | CC50 (in vitro [1]) | IC50 [2, 11] | IC50 [3, 12] | IC50 [4, 13] | IC50 [5, 14] | IC50 (recombinant M^Pro; [17]) | other results
COc1cccc(-c2ccc(C(=O)N[C@@H](CC(C)C)C(=O)N[C@H](C#N)C[C@@H]3CCNC3=O)cc2)c1 [6e] | > 95% | < 50% | > 100000 nM |  |  |  |  |  | IC50 (recombinant M^Pro; M^Pro IC50 (μM), Table 2): 0.786 µM; IC50 (recombinant M^Pro; [10]): 0.786 µM
COc1ccc(-c2ccc(C(=O)N[C@@H](CC(C)C)C(=O)N[C@H](C#N)C[C@@H]3CCNC3=O)cc2)cc1OC [6f] | > 95% | < 50% | > 100000 nM |  |  |  |  |  | IC50 (recombinant M^Pro; M^Pro IC50 (μM), Table 2): 0.859 µM; IC50 (recombinant M^Pro; [10]): 0.859 µM
CC(C)C[C@H](NC(=O)c1ccc(-c2cccc3nn(C)cc23)cc1)C(=O)N[C@H](C#N)C[C@@H]1CCNC1=O [6j] | > 95% | < 50% | > 100000 nM |  |  |  |  |  | IC50 (recombinant M^Pro; M^Pro IC50 (μM), Table 2): 0.622 µM; IC50 (recombinant M^Pro; [10]): 0.622 µM
CC(C)C[C@H](NC(=O)c1ccc(-c2ccc3c(cnn3C)c2)cc1)C(=O)N[C@H](C#N)C[C@@H]1CCNC1=O [6l] | > 95% | < 50% | > 100000 nM |  |  |  |  |  | IC50 (recombinant M^Pro; read-out: M^Pro IC50, Table 2): 0.56 µM; IC50 (recombinant M^Pro; read-out: M^Pro IC50, recombinant M^Pro, 20 μM QS1 (Ac-Abu-Tle-Leu-Gln-ACC) substrate, Table 1): 0.56 µM
COc1cccc(-c2ccc(C(=O)N[C@@H](CC3CCCCC3)C(=O)N[C@H](C#N)C[C@@H]3CCNC3=O)cc2)c1 [12k] | < 95% | < 50% |  | 0.011 µM | > 10 µM | > 10 µM | > 10 µM |  | IC50 (recombinant M^Pro; [10]): 2.01 µM
COc1ccc(-c2ccc(C(=O)N[C@@H](CC3CCCCC3)C(=O)N[C@H](C#N)C[C@@H]3CCNC3=O)cc2)cc1 [12l] | < 95% | < 50% |  | 0.006 µM | 1.64 µM | > 10 µM | > 10 µM |  | IC50 (recombinant M^Pro; [10]): 1.76 µM
CC(C)C[C@H](NC(=O)c1ccc(-c2cccc3nn(C)cc23)cc1F)C(=O)N[C@H](C#N)C[C@@H]1CCNC1=O [18a] |  |  | > 100000 nM |  |  |  |  |  | IC50 (recombinant M^Pro; M^Pro IC50 (nM), Table 4): 0.163 µM; IC50 (recombinant M^Pro; [15]): 0.162 µM; IC50 ([2]; Table 4, read-out: CatS IC50): 0.0279 µM; IC50 ([3]; Table 4, read-out: CatK IC50): 0.0485 µM; IC50 ([4]; Table 4, read-out: CatB IC50): 0.142 µM; IC50 ([5]; Table 4, read-out: CatL IC50): > 10 µM
COc1ccc(-c2ccc(C(=O)N[C@@H](CC(C)C)C(=O)N[C@H](C#N)C[C@@H]3CCNC3=O)c(F)c2)cc1 [18b] |  |  | 51600 nM |  |  |  |  |  | IC50 (recombinant M^Pro; M^Pro IC50 (nM), Table 4): 0.178 µM; IC50 (recombinant M^Pro; [15]): 0.178 µM; IC50 ([2]; Table 4, read-out: CatS IC50): 0.232 µM; IC50 ([3]; Table 4, read-out: CatK IC50): 0.077 µM; IC50 ([4]; Table 4, read-out: CatB IC50): 0.106 µM; IC50 ([5]; Table 4, read-out: CatL IC50): > 10 µM
COc1cccc(-c2ccc(C(=O)N[C@@H](CC(C)C)C(=O)N[C@H](C#N)C[C@@H]3CCNC3=O)c(Cl)c2)c1 [18n] |  |  | > 100000 nM | 0.015 µM | 0.329 µM | 0.115 µM |  |  | IC50 (recombinant M^Pro; M^Pro IC50 (nM), Table 4): 0.049 µM; IC50 (recombinant M^Pro; [15]): 0.049 µM; IC50 (recombinant M^Pro; [16]): 0.049 µM; IC50 ([2]; Table 4, read-out: CatS IC50): 0.0155 µM; IC50 ([3]; Table 4, read-out: CatK IC50): 0.329 µM; IC50 ([4]; Table 4, read-out: CatB IC50): 0.115 µM; IC50 ([5]; Table 4, read-out: CatL IC50): > 10 µM; solubility kinetic (physchem [6]): 34 µM (≈ 17.4 µg/mL); logD (physchem [7]): 3.1; microsomal CLint at 1 μM (in vitro [8]): 111 µL/min/mg; microsomal CLint at 1 μM (in vitro [9]): 40 µL/min/mg
COc1ccc(-c2ccc(C(=O)N[C@@H](CC(C)C)C(=O)N[C@H](C#N)C[C@@H]3CCNC3=O)c(Cl)c2)cc1 [18r] |  |  | 40100 nM |  |  |  |  |  | IC50 (recombinant M^Pro; M^Pro IC50 (nM), Table 4): 0.045 µM; IC50 (recombinant M^Pro; [15]): 0.045 µM; IC50 ([2]; Table 4, read-out: CatS IC50): 0.0246 µM; IC50 ([3]; Table 4, read-out: CatK IC50): 0.123 µM; IC50 ([4]; Table 4, read-out: CatB IC50): 0.193 µM; IC50 ([5]; Table 4, read-out: CatL IC50): > 10 µM
COc1ccc(-c2ccc(C(=O)N3C[C@H]4[C@@H]([C@H]3C(=O)N[C@H](C#N)C[C@@H]3CCNC3=O)C4(C)C)c(Cl)c2)cc1 [22e] |  |  | > 100000 nM | 1.03 µM | 2.08 µM | > 10 µM | > 10 µM | 0.087 µM | IC50 (recombinant M^Pro; [16]): 0.087 µM; activity against cathepsin B (in words) [4]: completely abolished; solubility kinetic (physchem [6]): 97 µM (≈ 51.9 µg/mL); logD (physchem [7]): 3.4; microsomal CLint at 1 μM (in vitro [8]): 450 µL/min/mg; microsomal CLint at 1 μM (in vitro [9]): 183 µL/min/mg
COc1cccc(-c2ccc(C(=O)N3C[C@H]4[C@@H]([C@H]3C(=O)N[C@H](C#N)C[C@@H]3CCNC3=O)C4(C)C)c(Cl)c2)c1 [22f] |  |  | > 100000 nM | 1.29 µM | 4.52 µM | > 10 µM | > 10 µM | 0.12 µM | IC50 (recombinant M^Pro; [16]): 0.12 µM; activity against cathepsin B (in words) [4]: completely abolished; solubility kinetic (physchem [6]): 82 µM (≈ 43.9 µg/mL); logD (physchem [7]): 3.5; microsomal CLint at 1 μM (in vitro [8]): 450 µL/min/mg; microsomal CLint at 1 μM (in vitro [9]): 209 µL/min/mg
COc1ccc(-c2ccc(C(=O)N3C[C@@H]4CCC[C@@H]4[C@H]3C(=O)N[C@H](C#N)C[C@@H]3CCNC3=O)c(Cl)c2)cc1 [22k] |  |  |  | 0.718 µM | 0.68 µM | > 10 µM | > 10 µM | 0.743 µM | 
COc1cccc(-c2ccc(C(=O)N3C[C@@H]4CCC[C@@H]4[C@H]3C(=O)N[C@H](C#N)C[C@@H]3CCNC3=O)c(Cl)c2)c1 [22l] |  |  |  | 0.538 µM | 1.07 µM | > 10 µM | > 10 µM | 1.06 µM | 
COc1ccc(-c2ccc(C(=O)N[C@@H](CC3CCCCC3)C(=O)N[C@H](C#N)C[C@@H]3CCNC3=O)c(F)c2)cc1 [23a] |  |  |  | 0.016 µM | > 10 µM | > 10 µM | > 10 µM | 0.807 µM | 
COc1cccc(-c2ccc(C(=O)N[C@@H](CC3CCCCC3)C(=O)N[C@H](C#N)C[C@@H]3CCNC3=O)c(F)c2)c1 [23b] |  |  |  | 0.059 µM | 1.34 µM | 0.238 µM | > 10 µM | 0.691 µM | 
COc1ccc(-c2ccc(C(=O)N[C@@H](CC3CCCCC3)C(=O)N[C@H](C#N)C[C@@H]3CCNC3=O)c(Cl)c2)cc1 [23c] |  |  | > 100000 nM | 0.011 µM | 1.52 µM | 0.104 µM | > 10 µM | 0.077 µM | IC50 (recombinant M^Pro; [16]): 0.077 µM
COc1cccc(-c2ccc(C(=O)N[C@@H](CC3CCCCC3)C(=O)N[C@H](C#N)C[C@@H]3CCNC3=O)c(Cl)c2)c1 [23d] |  |  | > 100000 nM | 0.011 µM | 0.887 µM | 0.137 µM | > 10 µM | 0.094 µM | 
